For test [1], the target named is Human immunodeficiency virus type 1 reverse transcriptase (Human immunodeficiency virus 1) (UniProt Q72547). Nature of the test: Inhibition of HIV1 reverse transcriptase assessed as reduction in [3H]dTTP incorporation by measuring proportional residual activity ratio at 300 uM using poly(rA)/oligo(dT) as template/primer after 30 mins by scintillation counting method.

Test [2] shares this target. Kind of test: Inhibition of HIV1 reverse transcriptase assessed as reduction in [3H]dTTP incorporation by measuring proportional residual activity ratio at 20 uM using poly(rA)/oligo(dT) as template/primer after 30 mins by scintillation counting method relative to control.

Molecules are shown by their SMILES. Where a SMILES comes first, the peptide text is derived from it. Bridges are numbered along the chain shown (N, C = ends). [ ]: non-standard residue; d: D form. The star is where a group is joined. ξ: configuration not given here. Quinoxaline2carbonyl = O=C(c1cnc2ccccc2n1)*; ξDap = NCC(N)C(=O)O

Take `NC(=O)[C@@H](Cc1c[nH]c2ccccc12)NC(=O)CNC(=O)[C@H](N)Cc1c[nH]c2ccccc12`: the Ratio in test [1] stood at 0.76.

Regarding `NCC1NC(=O)C[C@@H](C(N)=O)NC(=O)C(CNC(=O)c2cnc3ccccc3n2)NC(=O)CNC(=O)C(CNC(=O)c2cnc3ccccc3n2)NC(=O)CNC(=O)C(CNC(=O)c2cnc3ccccc3n2)NC1=O` (stereo partly drawn) ([ξDap][ξDap](Quinoxaline2carbonyl)G[ξDap](Quinoxaline2carbonyl)G[ξDap](Quinoxaline2carbonyl)D-NH2; lactam N-7), the Ratio in test [2] was determined as 0.18.

As for `NCC1NC(=O)C[C@@H](C(N)=O)NC(=O)CNC(=O)C(CNC(=O)c2cnc3ccccc3n2)NC(=O)CNC(=O)CNC(=O)C(CNC(=O)c2cnc3ccccc3n2)NC1=O` (some centres not stated) ([ξDap][ξDap](Quinoxaline2carbonyl)GG[ξDap](Quinoxaline2carbonyl)GD-NH2; lactam N-7), the Ratio in test [2] stood at 0.02. For the compound `NC(=O)C[C@H](NC(=O)[C@@H](N)Cc1c[nH]c2ccccc12)C(=O)N[C@@H](Cc1c[nH]c2ccccc12)C(N)=O`, the Ratio in test [1] is 0.62. For `NCC1NC(=O)C[C@@H](C(N)=O)NC(=O)CNC(=O)CNC(=O)C(CNC(=O)c2cnc3ccccc3n2)NC(=O)C(CNC(=O)c2cnc3ccccc3n2)NC(=O)C(CNC(=O)c2cnc3ccccc3n2)NC1=O` (some centres not stated) ([ξDap][ξDap](Quinoxaline2carbonyl)[ξDap](Quinoxaline2carbonyl)[ξDap](Quinoxaline2carbonyl)GGD-NH2; lactam N-7), the Ratio in test [2] was 0.04. For `NC(=O)[C@@H](Cc1c[nH]c2ccccc12)NC(=O)CNC(=O)[C@@H](N)Cc1c[nH]c2ccccc12`, the Ratio in test [1] was 0.74. Same read-out and setting: the figure for `NC(=O)C[C@@H](NC(=O)[C@@H](N)Cc1c[nH]c2ccccc12)C(=O)N[C@H](Cc1c[nH]c2ccccc12)C(N)=O` is 0.35; for `NC(=O)[C@H](Cc1c[nH]c2ccccc12)NC(=O)CNC(=O)[C@@H](N)Cc1c[nH]c2ccccc12` it is 0.4; for `NC(=O)C[C@@H](NC(=O)[C@H](N)Cc1c[nH]c2ccccc12)C(=O)N[C@H](Cc1c[nH]c2ccccc12)C(N)=O` it is 0.47. Regarding `NC(=O)[C@H](Cc1c[nH]c2ccccc12)NC(=O)CNC(=O)[C@H](N)Cc1c[nH]c2ccccc12`, in test [1], the Ratio turned out to be 0.63. The same measure, in the same setting: the figure for `NC(=O)[C@H](Cc1c[nH]c2ccccc12)NC(=O)[C@H](N)Cc1c[nH]c2ccccc12` is 0.61; for `NC(=O)C[C@H](NC(=O)[C@H](N)Cc1c[nH]c2ccccc12)C(=O)N[C@@H](Cc1c[nH]c2ccccc12)C(N)=O` it is 0.69; for `NC(=O)C[C@@H](NC(=O)[C@@H](N)Cc1c[nH]c2ccccc12)C(=O)N[C@@H](Cc1c[nH]c2ccccc12)C(N)=O` it is 0.6.

In the case of `NC(=O)[C@@H](Cc1c[nH]c2ccccc12)NC(=O)[C@H](N)Cc1c[nH]c2ccccc12`, in test [1], the Ratio came to 0.7.

Regarding `NC(=O)C[C@@H](NC(=O)[C@H](N)Cc1c[nH]c2ccccc12)C(=O)N[C@@H](Cc1c[nH]c2ccccc12)C(N)=O`, the Ratio in test [1] stood at 0.34.

With `NC(=O)[C@@H](Cc1c[nH]c2ccccc12)NC(=O)CCCNC(=O)[C@H](N)Cc1c[nH]c2ccccc12`, in test [1], the Ratio came to 0.36. Take `NC(=O)[C@H](Cc1c[nH]c2ccccc12)NC(=O)CCCNC(=O)[C@H](N)Cc1c[nH]c2ccccc12`: the Ratio in test [1] stood at 0.43. Same read-out and setting: the figure for `NC(=O)C[C@H](NC(=O)[C@H](N)Cc1c[nH]c2ccccc12)C(=O)N[C@H](Cc1c[nH]c2ccccc12)C(N)=O` is 0.69; for `NC(=O)[C@H](Cc1c[nH]c2ccccc12)NC(=O)[C@@H](N)Cc1c[nH]c2ccccc12` it is 0.65. `NC(=O)[C@@H](Cc1c[nH]c2ccccc12)NC(=O)CCNC(=O)[C@@H](N)Cc1c[nH]c2ccccc12`: the Ratio in test [1] came out at 0.46. On the same count and under the same terms, the figure for `NC(=O)[C@@H](Cc1c[nH]c2ccccc12)NC(=O)[C@@H](N)Cc1c[nH]c2ccccc12` is 0.45; for `NC(=O)C[C@H](NC(=O)[C@@H](N)Cc1c[nH]c2ccccc12)C(=O)N[C@H](Cc1c[nH]c2ccccc12)C(N)=O` it is 0.44.
